Measured values published in US20120053165A1, “Novel Phenyl Imidazoles and Phenyl Triazoles As Gamma-Secretase Modulators” (Pfizer Inc., priority 2009, published 2012).
pIC50: −log10 of the molar value. Structures can show the parent of a compound that is named as a salt. Where two headings read alike, the source gives them in different places.

System: production of amyloid beta protein Aβ(1-42) in human WT-APP overexpressing CHO cells
Settings: human WT-APP overexpressing CHO cells
[1] = Homo sapiens, CHO, read-out: Aβ 42 IC50, Geometric mean of 2-8 determinations
[2] = read-out: Aβ 42 IC50, Geometric mean of 2-8 determinations
[3] = Homo sapiens, CHO, read-out: Aβ 42 IC50, Geometric mean of at least 2 determinations
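Further: Aβ(1-42) released into conditioned medium captured by ELISA after roughly 24 h compound exposure, vehicle and inhibitor controls defining maximal and minimal inhibition.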

Protocol: Cell-Based γ-Secretase Assay with ELISA Readout
The ability of compounds to modulate production of amyloid beta protein Aβ(1-42) was determined using human WT-APP overexpressing CHO cells. Cells were plated at 22,000 cells/100 μL well in 96 well tissue culture treated, clear plates (Falcon) in DMEM/F12 based medium and incubated for 24 hours at 37° C. […] Compounds were added in fresh medium to achieve 1% final DMSO. Appropriate vehicle and inhibitor controls were added to obtain maximum and minimum inhibition values for the assay before the plates were incubated for about 24 hours at 37° C.
Coating of ELISA assay plates was initiated by addition of 50 μL/well of an in house Aβ(1-42) specific antibody at (4 μg/mL) in 0.1 M NaHCO3 (pH 9.0) into black 384-well Maxisorp® plates (Nunc) and incubated overnight at 4° C. […] Ambient temperature incubation was allowed to proceed for a minimum of two hours before washing 2×100 μL with Wash Buffer (Dulbecco's PBS, 0.05% Tween 20). Assay Buffer (Dulbecco's PBS, 1.0% BSA (Sigma A7030), 0.05% Tween 20) 20 μL/well is then added.
After incubation overnight at 37° C., 5% CO2, 40 μL (in duplicate) of experimental conditioned media are transferred into wells of the blocked ELISA plates containing the capture antibody, followed by overnight incubation at 4° C.
After overnight incubation of the ELISA assay plates at 4° C., unbound Aβ peptides were removed thorough (4×100 μL) washes with Wash Buffer.

Compound | pIC50 [1] | pIC50 [2] | also measured
COc1cc(C(=O)N[C@@H]2CCC[C@@H]2c2ccc(F)cc2)ccc1-n1cnc(C)c1 [Example 115, N-[(1R,2R)-2-(4-fluorophenyl)cyclopentyl]-3-methoxy-4-(4-methyl-1H-imidazol-1-yl)benzamide] | 6.10 | – | –
COc1cc(C(=O)NCc2cc(-c3ccc(F)cc3)on2)ccc1-n1cnc(C)c1 [Example 116, N-{[5-(4-fluorophenyl)isoxazol-3-yl]methyl}-3-methoxy-4-(4-methyl-1H-imidazol-1-yl)benzamide] | 6.09 | – | –
COc1cc(C(=O)NCCc2c(C)[nH]c3ccccc23)ccc1-n1cnc(C)c1 [Example 117, 3-methoxy-4-(4-methyl-1H-imidazol-1-yl)-N-[2-(2-methyl-1H-indol-3-yl)ethyl] benzamide] | – | 6.08 | –
COc1cc(C(=O)N(C)Cc2cccc3ccccc23)ccc1-n1cnc(C)c1 [Example 118, 3-methoxy-N-methyl-4-(4-methyl-1H-imidazol-1-yl)-N-(1-naphthylmethyl) benzamide] | – | 6.08 | –
COc1cc(C(=O)N2CCC(Oc3cccc(C(F)(F)F)c3)CC2)ccc1-n1cnc(C)c1 [Example 119, 1-[3-methoxy-4-(4-methyl-1H-imidazol-1-yl)benzoyl]-4-[3-(trifluoromethyl)phenoxy]piperidine] | 6.07 | – | –
COc1ccc2c(c1)CCC2NC(=O)c1ccc(-n2cnc(C)c2)c(OC)c1 (centres unmarked) [Example 120, 3-methoxy-N-(5-methoxy-2,3-dihydro-1H-inden-1-yl)-4-(4-methyl-1H-imidazol-1-yl)benzamide] | – | – | pIC50 (Homo sapiens, CHO, read-out: Aβ 42 IC50, Single IC50 determination): 6.06
COc1cc(C(=O)NCCc2nc3cc(C)ccc3o2)ccc1-n1cnc(C)c1 [Example 121, 3-methoxy-N-[2-(5-methyl-1,3-benzoxazol-2-yl)ethyl]-4-(4-methyl-1H-imidazol-1-yl) benzamide] | – | 6.06 | –
COc1cc(C(=O)NCC2COc3ccccc3C2)ccc1-n1cnc(C)c1 (centres unmarked) [Example 122, N-(3,4-dihydro-2H-chromen-3-ylmethyl)-3-methoxy-4-(4-methyl-1H-imidazol-1-yl)benzamide] | 6.01 | – | –
COc1cc(C(=O)N(Cc2cc(-c3ccccc3)ccc2C)C2CC2)ccc1-n1cnc(C)c1 [Example 123, N-cyclopropyl-3-methoxy-N-[(4-methylbi-phenyl-3-yl)methyl]-4-(4-methyl-1H-imidazol-1-yl) benzamide] | – | 7.14 | –
CCOc1cc(C)c(CN(C(=O)c2ccc(-n3cnc(C)c3)c(OC)c2)C2CC2)cc1C(C)C [Example 124, N-cyclopropyl-N-(4-ethoxy-5-isopropyl-2-methylbenzyl)-3-methoxy-4-(4-methyl-1H-imidazol-1-yl)benzamide] | 6.94 | – | –
COc1cc(C(=O)N(Cc2cc(C(C)C)ccc2C)C2CC2)ccc1-n1cnc(C)c1 [Example 125, N-cyclopropyl-N-(5-isopropyl-2-methylbenzyl)-3-methoxy-4-(4-methyl-1H-imidazol-1-yl) benzamide] | – | 6.73 | –
COc1cc(C(=O)N[C@@H](C)c2cccc(-c3ccccc3)c2)ccc1-n1cnc(C)c1 [Example 126, N-[(1S)-1-biphenyl-3-ylethyl]-3-methoxy-4-(4-methyl-1H-imidazol-1-yl) benzamide] | – | 6.31 | –
COc1cc(C(=O)N[C@H]2CCc3ccc(Cl)cc32)ccc1-n1cnc(C)c1 [Example 129, N-[(1S)-6-chloro-2,3-dihydro-1H-inden-1-yl]-3-methoxy-4-(4-methyl-1H-imidazol-1-yl)benzamide] | 6.22 | – | –
COc1cc(C(=O)NC2COc3ccc(C(F)(F)F)cc32)ccc1-n1cnc(C)c1 (centres unmarked) [Example 130, 3-methoxy-4-(4-methyl-1H-imidazol-1-yl)-N-[5-(trifluoro-methyl)-2,3-dihydro-1-benzofuran-3-yl]benzamide] | 6.18 | – | –
COc1cc(C(=O)N2CC(COc3ccccc3C(F)(F)F)C2)ccc1-n1cnc(C)c1 [Example 131, 1-{2-methoxy-4-[(3-{[2-(trifluoro-methyl)phenoxy]methyl}azetidin-1-yl)carbonyl]phenyl}-4-methyl-1H-imidazole] | 6.51 | – | –
COc1cc(C(=O)N2CCC(COc3ccccc3C(F)(F)F)C2)ccc1-n1cnc(C)c1 (centres unmarked) [Example 132, 1-{2-methoxy-4-[(3-{[2-(tri-fluoromethyl)phenoxy]methyl}pyrrolidin-1-yl)carbonyl]phenyl}-4-methyl-1H-imidazole] | 6.33 | – | –
COc1cc(C(=O)N2CC(COc3cccc(C(F)(F)F)c3)C2)ccc1-n1cnc(C)c1 [Example 133, 1-{2-methoxy-4-[(3-{[3-(trifluoromethyl)phenoxy]methyl}azetidin-1-yl)carbonyl]phenyl}-4-methyl-1H-imidazole] | 6.30 | – | –
COc1cc(C(=O)N2CCCC2COc2ccccc2C(F)(F)F)ccc1-n1cnc(C)c1 (centres unmarked) [Example 134, 1-{2-methoxy-4-[(2-{[2-(tri-fluoromethyl)phenoxy]methyl}pyrrolidin-1-yl)carbonyl]phenyl}-4-methyl-1H-imidazole] | 6.17 | – | –
COc1cc(C(=O)N2CC(COc3cccc4ccccc34)C2)ccc1-n1cnc(C)c1 [Example 135, 1-[2-methoxy-4-({3-[(1-naphthyloxy)methyl]azetidin-1-yl}carbonyl)phenyl]-4-methyl-1H-imidazole trifluoroacetate salt] | – | – | pIC50 [3]: 6.95
COc1cc(C(=O)N2CC(COc3ccc(F)c(C)c3Cl)C2)ccc1-n1cnc(C)c1 [Example 136, 1-[4-({3-[(2-chloro-4-fluoro-3-methyl-phenoxy)methyl]azetidin-1-yl}carbonyl)-2-methoxyphenyl]-4-methyl-1H-imidazole trifluoroacetate salt] | – | – | pIC50 [3]: 6.51
COc1cc(C(=O)N2CC(COc3cccc4c3CCC4)C2)ccc1-n1cnc(C)c1 [Example 137, 1-[4-({3-[(2,3-dihydro-1H-inden-4-yloxy)methyl]azetidin-1-yl}carbonyl)-2-methoxyphenyl]-4-methyl-1H-imidazole trifluoroacetate salt] | – | – | pIC50 [3]: 6.39
CCc1cc(F)ccc1OCC1CN(C(=O)c2ccc(-n3cnc(C)c3)c(OC)c2)C1 [Example 138, 1-[4-({3-[(2-ethyl-4-fluorophenoxy)methyl]azetidin-1-yl}carbonyl)-2-methoxyphenyl]-4-methyl-1H-imidazole trifluoroacetate salt] | – | – | pIC50 [3]: 6.27
CCc1ccccc1OCC1CN(C(=O)c2ccc(-n3cnc(C)c3)c(OC)c2)C1 [Example 140, 1-[4-({3-[(2-ethylphenoxy)methyl]azetidin-1-yl}carbonyl)-2-methoxyphenyl]-4-methyl-1H-imidazole trifluoroacetate salt] | – | – | pIC50 [3]: 6.23
N-[2-(4-fluoro- phenyl)-1,1- dimethylethyl]- 3-methoxy-4- (4-methyl-1H- imidazol-1-yl) benzamide [Example 37] | – | 6.28 | –
N-[3-(3- chlorophenyl) propyl]-3- methoxy-4-(4- methyl-1H- imidazol-1-yl) benzamide [Example 46] | – | 6.24 | –
N-{[3-(3- chlorophenyl)- 4,5-dihydro- isoxazol-5-yl] methyl}-3- methoxy-4- (4-methyl-1H- imidazol-1-yl) benzamide [Example 12] | – | 5.88 | –
